Source: patent US4033721A, “Analysis of gentian violet residue in tissue” (priority 1976, dated 1977)
Values joined by “and” are separate entries in the source; they are usually repeats but may differ in a detail not shown here. Equal values may be shown once. Read-outs that look alike come from different tables or passages of the source.

Assays:
[1] = cited from earlier work
[2] = system: normal coliform bacteria; conditions: intestinal tract; cited from earlier work
[3] = cited from earlier work; remark: listed apart in the source
[4] = system: Candida albicans; conditions: cited from earlier work
[5] = Spectrophotometric determination of gentian violet residue in livers of chickens fed gentian violet (Examples 2 to 24); type: in vivo
Description: This example involves the spectrophotometrical determination of the gentian violet content (as a residue) of poultry tissue.
An acid alcohol solution was prepared by adding 20 ml of concentrated hydrochloric acid to 2,000 ml of 95 percent ethyl alcohol (denatured).
A gentian violet stock solution was prepared as follows: Using the Ainsworth chainomatic analytical balance, 0.104 gm of crystalline gentian violet (USP) was accurately weighed out and quantitatively transferred to a 1000 ml volumetric flask and q.s. to 1000 ml with distilled water. A magnetic stirring bar was inserted into the flask and the gentian violet solution was mixed on a magnetic mixer for 1 hour. This solution contained 100 ug of gentian violet per ml (100 ppm).
Gentian violet-acid alcohol standard solutions were prepared as follows: Five standard dilutions of gentian violet in acid alcohol were prepared and the absorbence (O.D.) for each dilution was determined. The absorbence of the 5 dilutions were plotted on a graph to determine the linearity of the gentian violet curve.
The spectrophotometer was set at 590 mμ and zeroed using an acid alcohol blank. The absorbence of the 5 standard dilutions in the 13 mm cuvette was determined. The O.D. of the 1 ppm dilution in the 13 mm cuvette was recorded for use in calculation of the gentian violet recovery. (If method sensitivity below 0.1 ppm is desired, the O.D. of the 1 ppm standard in the 100 mm cell is recorded and the Beckman D.U. is used to make the determinations.)
A sodium hypochlorite quenching solution was prepared as follows: 0.26 gm. of sodium hypochlorite was weighed into a 250 ml Erlenmeyer flask and q.s. to 100 ml with distilled water. This solution was 0.26 percent NaOCL. If sodium hypochlorite is not available in the laboratory, this solution can be made from any standard household bleaching solution containing sodium hypochlorite (i.e., Clorox) at the 5.25 percent concentration. 1 ml 5.25 percent NaOCL q.s. to 20 ml with distilled water to give 20 ml of 0.26 percent NaOCL.
The tissue samples were prepared by grinding the tissues in a Waring-type blender to reduce the tissues to the smallest particle size possible. Using a Mettler P162-type balance, 5 gm samples of the finely ground tissues were weighed (in triplicate) into Erlenmeyer flasks.
Gentian violet was extracted from tissue samples as follows: 50 ml of acid-alcohol were added (using a graduated glass cylinder) to each of the samples in the flasks. A 3/4" magnetic stirring bar was inserted into each sample. The flasks were stoppered. The samples were placed on the magnetic mixers and mixed for 1 hour. After mixing, the samples were set in the dark to digest for 12 hours (overnight). After 12 hours of digestion the samples were again placed on the magnetic mixer and mixed for 1 hour. The contents of the sample flasks were poured into 60 ml glass centrifuge tubes and centrifuged at 2400 rpm for 10 minutes.
Chromatographic column clearing of the centrifuged samples was achieved as follows: Each column was equipped with a glass stop-cock, if the column was not so equipped. A small glass-wool pledget was inserted firmly in the bottom of the column to fill the bottom curve of the column. 5 to 6 grams of the Alumin AR sorbent was added to each column. The supernatant liquid was carefully decanted from the centrifuge tube into the chromatographic column. A 50 ml beaker was placed under each column. The stop-cock was opened and the first eluant from the column was collected until a minimum of 20 ml was collected. (This first eluant ordinarily was yellow in color but contained the extracted gentian violet.)
Spectrophotometric determination of the gentian violet concentration from the tissue sample was determined as follows: 5 ml of each of the eluants was pipetted into the 13 mm cuvettes. The spectrophotometer was set at 590 mu. The spectrophotometer was zeroed using an acid alcohol blank in the 13 mm cuvette. It was established that all cuvettes were matched. […]

[6] = cited from earlier work; remark: listed apart in the source
[7] = water, chloroform and ethanol; cited from earlier work
[8] = Residual 14C-gentian violet in tissues of cockerels after repeated oral administration (Example 26)
[9] = Stability of gentian violet (light, acid, digestive tract pH); type: physicochemical
[10] = cited from earlier work; remark: listed apart in the source
[11] = 4 hours after last administration

SMILES: CN(C)c1ccc(C(=C2C=CC(=[N+](C)C)C=C2)c2ccc(N(C)C)cc2)cc1 [gentian violet, hexamethylpararosaniline chloride]
- absorption ([1]; digestive tract of animals and poultry): essentially non-absorbable
- residue in tissue of animals fed the compositions ([1]; in vivo): little or no residue
- effect on growth and activity of normal coliform bacteria [2]: without materially reducing the growth of and activity of the normal coliform bacteria
- biodegradability ([3]; contaminant in water and residue in poultry manure, ultra-violet rays of sunlight): biodegradable
- stability in the digestive tract pH range ([3]; pH range of the digestive tract of animals and poultry): stable
- effect on Candida albicans [4]: inhibits the growth of and destroys Candida albicans
- gentian violet residue with time after last intake of feed ([5]; chicken liver): lower with time
- p.p.m. of Gentian Violet in liver ([5]; chicken liver, feed 7 ppm for 56 days, 4 hours after final dose, 240 min): 0.28 p.p.m.
- p.p.m. of Gentian Violet in liver ([5]; chicken liver, feed 7 ppm for 56 days, 24 hours after final dose, 1440 min): 0.20 p.p.m.
- p.p.m. of Gentian Violet in liver ([5]; chicken liver, feed 7 ppm for 56 days, 48 hours after final dose, 2880 min): 0.08 p.p.m. and 0.16 p.p.m.
- p.p.m. of Gentian Violet in liver ([5]; chicken liver, feed 35 ppm for 56 days, 12 hours after final dose): 0.44 p.p.m.
- p.p.m. of Gentian Violet in liver ([5]; chicken liver, feed 35 ppm for 56 days, 24 hours after final dose, 1440 min): 0.80 p.p.m. and 0.60 p.p.m.
- concentration at 4 h ([5]; chicken, liver, po, feed 7 ppm for 56 days, 4 hours after final dose, read-out: p.p.m. of Gentian Violet in liver): 240 ng/g
- concentration at 12 h ([5]; chicken, liver, po, feed 7 ppm for 56 days, 12 hours after final dose, read-out: p.p.m. of Gentian Violet in liver): 120 ng/g
- concentration at 48 h ([5]; chicken, liver, po, feed 7 ppm for 56 days, 48 hours after final dose, read-out: p.p.m. of Gentian Violet in liver): 80 ng/g
- concentration at 12 h ([5]; chicken, liver, po, feed 35 ppm for 56 days, 12 hours after final dose, read-out: p.p.m. of Gentian Violet in liver): 440 ng/g
- concentration at 24 h ([5]; chicken, liver, po, feed 35 ppm for 56 days, 24 hours after final dose, read-out: p.p.m. of Gentian Violet in liver): 640 ng/g
- concentration at 48 h ([5]; chicken, liver, po, feed 35 ppm for 56 days, 48 hours after final dose, read-out: p.p.m. of Gentian Violet in liver): 360 ng/g
- toxic effects in poultry ([6]; in vivo): can kill the poultry or cause a decrease in the weight gain of the poultry
- toxicity of residue levels to the consuming animal or poultry ([6]; levels given in U.S. Pat. No. 3,916,027): not toxic or harmful
- solubility [7]: soluble in water, chloroform and ethanol
- radioactivity in 5X kidneys relative to 1X kidneys [8, 11]: 4.7 times
- radioactivity in 5X livers relative to 1X livers [8, 11]: 2.7 times
- concentration by the liver relative to the kidneys ([8]; in vivo): about twice as much
- disappearance from one organ versus the other ([8]; livers and kidneys): does not disappear more rapidly from one organ than the other
- mean half-life in the two organs at dose levels ([8]; livers and kidneys, 5X and 1X): 32.2 h
- acid stability ([9]; acid ethanol extract, pH lowered by evaporation): the acid would destroy the extracted gentian violet
- light stability ([9]; ultra violet rays of sunlight): extremely sensitive to decomposition
- growth on mycotoxin-contaminated feed ([10]; feed containing gentian violet at the claimed levels): increased at a rate significantly faster
- growth promotion ([10]; feed contaminated with aflatoxin): works as a growth promoter
- sparing effect versus aflatoxin concentration ([10]; in vivo): appears to be a linear function of the concentration of the aflatoxin in the feed
